In US5574059A, “Treating disorders mediated by vascular smooth muscle cell proliferation” (priority 1995, dated 1996):
Like-named read-outs stand apart in the source and are kept apart here.

How the values were obtained:
[1] = Example III: patient with coronary artery disease, angioplasty; type: in vivo, human
Method: A person presents with the onset of chest pain on exertion. […] Ten days before angioplasty, the patient is begun on 75 or 100 mg/day of idazoxan. […] Treatment with 50 mg/day idazoxan is continued for 3 months.

[2] = tested on: rat aortic smooth muscle cells; test: antagonism of the antiproliferative effect in serum-stimulated smooth muscle cells; type: cell-based; details: Rattus norvegicus; in presence of tolazoline 100 μM; read-out: IC50 of idazoxan in presence of tolazoline
Method: Inhibition of serum-stimulated proliferation of rat aortic smooth muscle cells is determined as follows: The antiproliferative effect of potential drug is determined by measuring the incorporation of ^3 H-thymidine into cellular DNA. Exposure of quiescent vascular smooth muscle cell to serum, which contains many growth factors, results in a large increase in cellular proliferation as measured by ^3 H-thymidine incorported into DNA. The inhibitory effect of potential drug on serum-stimulated proliferation is tested by adding a drug before the addition of serum and determining if the serum-stimulated proliferation is reduced. […] In that event, antagonizing of the antiproliferative effect of idazoxan is determined by adding antagonist before the addition of idazoxan to serum-stimulated vascular smooth muscle cells.
After 48 hours, the cells were starved in 0.5% FCS for another 48 hours to decrease proliferation and induce quiescence. The medium was replaced by serum-free medium 24 hours prior to addition of drug (drugs are described below) and 10% fetal calf serum or only 10% fetal calf serum in the case of the control. The cells were then incubated for 24 hours and ^3 H-thymidine (1 μCi/well) was added at hour 20. At the end of the 24 hour period, the medium was aspirated and the cells were washed three times with phosphate-buffered saline and twice with ice-cold trichloroacetic acid. Fixed cells were then solubilized in 0.2M NaOH and sonicated. A 100 μl aliquot was used for scintillation counting.
To test this, the effect of tolazoline (100 μM) on the concentration/response curve was determined.

[3] = Example II: patient with narrowing of right common carotid artery, balloon angiography; type: in vivo, human; details: idazoxan 50 or 75 mg/day two weeks before and 3 months after balloon angiography; UK 14,304 125, cirazoline 60, naphazoline 125, agmatine 900 mg/day
Method: A person presents with a history of intermittent brief episodes of transient monocular blindness in the right eye associated with clumsiness and weakness of the left arm and leg. Angiography indicates substantial narrowing of the right common carotid artery. They are with treated with idazoxan at a dosage of 50 or 75 mg/day for two weeks preceding balloon angiography and for 3 months thereafter.

[4] = tested on: I2 imidazoline receptors; test: inhibition of 3H-idazoxan (5 nM) binding to rat aortic smooth muscle cell membranes; details: 3H-idazoxan 5 nM
Method: Binding to I2 imidazoline receptors is determined by the following assay. Membranes are prepared from cultured cells for ligand binding as described in Regunathan, S., et al, Biochem. Pharmacol. 45, 1667-1675 (1993) and Regunathan, S., et al, J. Neurosci. Res. 34, 681-688 (1993) and the disclosure in these on this is incorporated herein by reference. In particular, harvested rat aortic smooth muscle cells are homogenized in Hepes-sucrose buffer (pH 7.4) with a Teflon-glass homogenizer and centrifuged at 1000 × g for 10 minutes. The pellets are suspended in ice-cold Tris-HCl buffer (pH 7.7) with 5mM ethylene diamine tetracetic acid and homogenized using a Polytron (Brinkman Instruments) for 10 seconds. The homogenate is centrifuged at 40,000 × g for 30 minutes to produce a membrane pellet. The membrane pellet is washed three times by resuspending in buffer and re-centrifuging. The washed pellet is suspended in fresh Tris-HCl buffer (pH 7.4) to provide approximately 100 μg protein per assay tube. Binding assays are performed in Tris-HCl buffer (pH 7.7) using 5 nM of […]. Non-specific binding is defined by 100 μM of unlabelled idazoxan which will inhibit the specific binding of ^3 H-idazoxan. Thus the binding remaining in the presence 100 μM of idazoxan is due to non-specific binding and this will be substracted from total binding to calculate the specific binding. Following incubation at 25° C. for 30 minutes, reaction is terminated by rapid vacuum filtration over Whatman GF/B filters and washed with 10 ml of ice-cold buffer. Filters are suspended in scintillation fluid and radioactivity counted in a liquid scintillation counter. Membrane protein is assayed by Coomassie Blue method (Pierce) using bovine serum albumin as standard.
Determination of inhibition constant (Ki) for each drug is determined as follows: The binding of ^3 H-idazoxan to membranes of vascular smooth muscle cells is determined in the presence of 0.1 nM to 100 μM concentrations of potential drug. The percent inhibition of specific binding of ^3 H-idazoxan by each concentration is calculated and plotted against concentration. The data is analyzed by non-linear curve fitting program, LIGAND and the IC50 value for each potential drug is calculated. The affinity for each drug (Ki) for I2 imidazoline receptors is calculated using the formula Ki =IC50 /1+L/Kd where L is the concentration of ^3 H-idazoxan used for binding and Kd is the dissociation constant for ^3 H-idazoxan for I2 imidazoline receptors. The dissociation constant (Kd) is determined by Scatchard analysis of the saturation binding of ^3 H-idazoxan using the formula [formula] where B and F are the amount of bound and free ligand, respectively, and Bmax is the number of binding sites.
Primary cultures of rat-aortic smooth muscle cells were prepared by a modification (described in Erlinge, Do, et al, Am. J. Physiol. 265, H1089-1097, 1993) of the method of Meyer-Lehnert and Schrier (Meyer-Lehnert, H., et al, Hypertension 13,350-361, 1989), the disclosure of these cited articles being incorporated herein by reference. Briefly, rats were killed by anesthetic overdose and the aorta were removed and incubated with collagenase (2 mg/ml) in Dulbecco's modified Eagle's minimum essential medium (DMEM). The vessel was stripped of adventitia, cut longitudinally and the intima scraped away. After further collagenase treatment, the remaining tissue was passed 20 times through 18 and 16 gauge needles. The resulting cell suspension was centrifuged at 500 × g for 5 minutes and resuspended in DMEM containing penicillin (100 units/ml), streptomycin (100 μg/ml), 2 mM L-glutamine and 10% fetal calf serum. The suspended cells were plated in T-75 flasks, cultured until confluent, and subcultured in 100 mm plates. The confluent cells were harvested and membranes were prepared. Cell viability was determined by trypan blue exclusion.

c1ccc2c(c1)OCC(C1=NCCN1)O2 (stereo not drawn) [Idazoxan, 2-[2-(1,4-benzodioxanyl)]-2-imidazoline]
symptoms / restenosis after angioplasty ([1]; idazoxan 50 mg/day continued for 3 months, substitutes, dose not stated): remains symptomless without evidence of restenosis
chest pain ([1]; idazoxan 75 or 100 mg/day from ten days before angioplasty): no further chest pain
IC50 [2]: 55 µM
symptoms and restenosis of the vessel [3]: Symptoms disappear without evidence of restenosis of the vessel
Ki ([4]; "about", read-out: Ki, inhibition of 3H-idazoxan binding): ~0.01 µM
Ki ([4]; Table 2, rat aortic smooth muscle cell membranes, read-out: Ki): 0.0085 ± 0.00035 µM
